Data as given in the C3SDB collision cross section collection.
“And” between values parts separate entries of the source, which are not always exact repeats. Equal entries are not always repeated.

Tests used:
[1] = instrument: DT, single field, calibrated with Agilent tune mix (Agilent)
[2] = instrument: DT, single field, calibrated with ESI Low Concentration Tuning Mix (Agilent)
[3] = instrument: TW, calibrated with polyalanine and drug standards

## N[C@@H](C[C@@H](O)C(=O)O)C(=O)O [L-Erythro-4-Hydroxyglutamic acid]
[1]; [M+H]+
  collision cross section (N2): 135.8 Å²
[1]; [M-H2O-H]-
  collision cross section (N2): 123.86 Å²

## CC(C)(COP(=O)(O)OP(=O)(O)OC[C@H]1O[C@@H](n2cnc3c(N)ncnc32)[C@H](O)[C@@H]1OP(=O)(O)O)[C@@H](O)C(=O)NCCC(=O)NCCSC(=O)C[C@@](C)(O)CC(=O)O [HMG-CoA]
[1]; [M-H]-
  collision cross section (N2): 259.35 Å²

## O=c1nc[nH]c2nc[nH]c12 [HYPOXANTHINE]
[2]; [M+H]+
  collision cross section (N2): 127.2 Å²
[2]; [M+Na-2H]-
  collision cross section (N2): 134.4 Å²
[2]; [M+Na]+
  collision cross section (N2): 134.4 Å²
[2]; [M-H]-
  collision cross section (N2): 116.9 Å²
[3]; [M+H]+
  collision cross section (N2): 123.1 Å²

## Nc1ccn([C@@H]2O[C@H](CO)[C@@H](O)[C@H]2O)c(=O)n1 [CYTIDINE]
[2]; [M+H]+
  collision cross section (N2): 151 Å²
[2]; [M+Na]+
  collision cross section (N2): 159.7 Å²
[2]; [M-H]-
  collision cross section (N2): 149.8 Å²
[3]; [M+H]+
  collision cross section (N2): 151.1 Å²

## CC(=O)N[C@H]1[C@@H](OP(=O)(O)OP(=O)(O)OC[C@H]2O[C@@H](n3ccc(=O)[nH]c3=O)[C@H](O)[C@@H]2O)O[C@H](CO)[C@@H](O)[C@@H]1O [UDP-N-acetylglucosamine]
[1]; [M+H]+
  collision cross section (N2): 208.8 Å²
[1]; [M-H]-
  collision cross section (N2): 222 Å²

## OC[C@@H](O)C(O)[C@@H](O)CO (some centres undefined) [Ribitol]
[1]; [M+Na]+
  collision cross section (N2): 136.3 Å²

## CC(C)CC[C@@H](O)[C@@H](C)[C@H]1CC[C@H]2[C@@H]3CC=C4C[C@@H](O)CC[C@]4(C)[C@H]3CC[C@]12C [22beta-Hydroxycholesterol]
[1]; [M+H-H2O]+
  collision cross section (N2): 205.2 Å²
[1]; [M-H]-
  collision cross section (N2): 217.74 Å²

## O=C(O)[C@H](O)[C@@H](O)[C@H](O)[C@H](O)COP(=O)(O)O [6-Phospho-D-gluconate]
[1]; [M+Na]+
  collision cross section (N2): 157.3 Å²

## CC(C)CCCC(C)CCCC(C)CCCC(C)CC(=O)O (centres undefined) [Phytanic acid]
[1]; [M-H]-
  collision cross section (N2): 183.17 Å²

## Nc1ncnc2c1ncn2[C@H]1C[C@H](O)[C@@H](COP(=O)(O)O)O1 [2'-Deoxyadenosine 5'-monophosphate]
[1]; [M+H]+
  collision cross section (N2): 168.1 Å²

## O=C(O)[C@@H](O)[C@H](O)[C@H](O)[C@@H](O)C(=O)O [D-Galactarate]
[1]; [M+Na]+
  collision cross section (N2): 147.3 Å²
[1]; [M-H]-
  collision cross section (N2): 130.24 Å²

## CCCCC/C=C/C(=O)O [trans-2-Octenoic acid]
[1]; [M-H]-
  collision cross section (N2): 141.13 Å²

## CC(=O)N[C@H]1C(O)O[C@H](COP(=O)(O)O)[C@@H](O)[C@@H]1O (stereo partly drawn) [N-Acetyl-D-Glucosamine 6-Phosphate]
[1]; [M+Na]+
  collision cross section (N2): 164 Å²
[1]; [M-H]-
  collision cross section (N2): 152.83 Å²

## CC[C@H](C)[C@@H]1NC(=O)[C@H](Cc2ccc(O)cc2)NC(=O)[C@@H](N)CSSC[C@@H](C(=O)N2CCC[C@H]2C(=O)N[C@@H](CC(C)C)C(=O)NCC(N)=O)NC(=O)[C@H](CC(N)=O)NC(=O)[C@H](CCC(N)=O)NC1=O [Oxytocin]
[1]; [M+H]+
  collision cross section (N2): 303.8 Å²
[1]; [M-H]-
  collision cross section (N2): 294.98 Å²

## N[C@H](CO)Cc1cnc[nH]1 [L-Histidinol]
[1]; [M+H]+
  collision cross section (N2): 128.3 Å²
[1]; [M-H]-
  collision cross section (N2): 126.11 Å²

## CC(C)[C@@H](C)/C=C/[C@@H](C)[C@H]1CC[C@H]2/C(=C/C=C3\C[C@@H](O)CC[C@@H]3C)CCC[C@]12C [Dihydrotachysterol]
[1]; [M+H]+
  collision cross section (N2): 205.8 Å²

## N[C@@H](Cc1c[nH]c2ccc(O)cc12)C(=O)O [5-Hydroxy-L-tryptophan]
[1]; [M+Na]+
  collision cross section (N2): 152.2 Å²
[1]; [M-H]-
  collision cross section (N2): 148.86 Å²

## O=C(O)c1ccc(=O)[nH]c1 [6-Hydroxynicotinic acid]
[1]; [M+H]+
  collision cross section (N2): 129.5 Å²
[1]; [M-H]-
  collision cross section (N2): 118.52 Å²

## CS(=O)CCC(N)C(=O)O (racemic) [DL-Methionine sulfoxide]
[1]; [M+H]+
  collision cross section (N2): 133.1 Å²

## O=C(O)c1ccccc1 [Benzoic acid]
[1]; [M-H]-
  collision cross section (N2): 121.84 Å²

## NC(N)=NCCCC(=O)O [4-Guanidinobutyric acid]
[1]; [M+H]+
  collision cross section (N2): 129.7 Å²

## N[C@@H](Cc1cc(I)c(Oc2ccc(O)c(I)c2)c(I)c1)C(=O)O [LIOTHYRONINE]
[2]; [M+H]+
  collision cross section (N2): 209.1 Å²
[2]; [M+Na]+
  collision cross section (N2): 194.3 Å²
[3]; [M+H]+
  collision cross section (N2): 205.3 Å²

## CCCCCCCCCCCCCCC[C@@H](O)[C@@H](N)CO [Sphinganine]
[1]; [M+H]+
  collision cross section (N2): 188 Å²

## CNCC(O)c1ccc(O)cc1 (centres undefined) [Synephrine]
[1]; [M+H-H2O]+
  collision cross section (N2): 134.4 Å²

## CC(=O)OCC[N+](C)(C)C [Acetylcholine]
[1]; [M+H]+
  collision cross section (N2): 129.7 Å²

## CN(C)c1nc(=O)c2ncn([C@@H]3O[C@H](CO)[C@@H](O)[C@H]3O)c2[nH]1 [N2,N2-Dimethylguanosine]
[1]; [M+H]+
  collision cross section (N2): 170.6 Å²
[1]; [M-H]-
  collision cross section (N2): 169.16 Å²

## Cn1c(=O)[nH]c2ncn(C)c2c1=O [1,7-Dimethylxanthine]
[1]; [M-H]-
  collision cross section (N2): 133.24 Å²

## O=C(O)CCC1=C(CC(=O)O)c2cc3nc(cc4[nH]c(cc5[nH]c(cc1n2)c(CC(=O)O)c5CCC(=O)O)c(CC(=O)O)c4CCC(=O)O)C(CC(=O)O)=C3CCC(=O)O [Uroporphyrin I]
[1]; [M+H]+
  collision cross section (N2): 285.1 Å²
[1]; [M-H]-
  collision cross section (N2): 267.79 Å²

## NCCCNCCCCNCCCN [Spermine]
[1]; [M+H]+
  collision cross section (N2): 148.2 Å²

## O=C(O)c1cc(=O)c2cccc(O)c2[nH]1 [Xanthurenic acid]
[1]; [M+H]+
  collision cross section (N2): 140.5 Å²
[1]; [M-H]-
  collision cross section (N2): 132.51 Å²

## Cn1c(=O)[nH]c2[nH]c(=O)[nH]c(=O)c21 [7-Methyluric acid]
[1]; [M-H]-
  collision cross section (N2): 129.35 Å²

## OC[C@@H](O)[C@@H](O)[C@H](O)[C@H](O)CO [MANNITOL]
[2]; [M+Na]+
  collision cross section (N2): 141.1 Å²
[3]; [M+Na]+
  collision cross section (N2): 139.6 Å²

## COc1ccc2[nH]cc(CCNC(C)=O)c2c1 [MELATONIN]
[2]; [M+H]+
  collision cross section (N2): 153.2 Å²
[2]; [M+K]+
  collision cross section (N2): 158.3 Å²
[3]; [M+H]+
  collision cross section (N2): 152 Å²

## O=C(O)CCCC[C@@H]1SC[C@@H]2NC(=O)N[C@@H]21 [BIOTIN]
[2]; [M+H]+
  collision cross section (N2): 149.7 Å²
[2]; [M+K]+
  collision cross section (N2): 160.1 Å²
[2]; [M+Na-2H]-
  collision cross section (N2): 152.9 Å²
[2]; [M+Na]+
  collision cross section (N2): 159.9 Å²
[3]; [M+H]+
  collision cross section (N2): 148 Å²

## Cn1c(=O)c2[nH]cnc2n(C)c1=O [THEOPHYLLINE]
[2]; [M-H]-
  collision cross section (N2): 132 Å²
[3]; [M+H]+
  collision cross section (N2): 133.5 Å²

## O=C1O[C@H](CO)[C@@H](O)[C@H](O)[C@H]1O [GLUCONOLACTONE]
[2]; [M+H2O-H]-
  collision cross section (N2): 132.6 Å²
[2]; [M+H20-H]-
  collision cross section (N2): 132.5 Å²
[2]; [M+Na]+
  collision cross section (N2): 144.7 Å²
[3]; [M+H]+
  collision cross section (N2): 127.6 Å²

## Cn1c(=O)[nH]c2ncn(C)c2c1=O [PARAXANTHINE]
[2]; [M+H]+
  collision cross section (N2): 138.7 Å²
[2]; [M+Na]+
  collision cross section (N2): 149.5 Å²
[3]; [M+H]+
  collision cross section (N2): 132.4 Å²

## Nc1ncnc2c1ncn2[C@@H]1O[C@H](CO)[C@@H](O)[C@H]1O [ADENOSINE]
[2]; [M+H]+
  collision cross section (N2): 155.6 Å² and 161.4 Å²
[2]; [M+Na]+
  collision cross section (N2): 165.5 Å²
[2]; [M-H]-
  collision cross section (N2): 157.6 Å²
[3]; [M+H]+
  collision cross section (N2): 156.9 Å²

## N[C@@H](CSSC[C@H](N)C(=O)O)C(=O)O [CYSTINE]
[2]; [M+H]+
  collision cross section (N2): 149.4 Å²
[2]; [M+Na-2H]-
  collision cross section (N2): 147.3 Å²
[2]; [M+Na]+
  collision cross section (N2): 151.2 Å²
[2]; [M-H]-
  collision cross section (N2): 143 Å²
[3]; [M+H]+
  collision cross section (N2): 148.1 Å²

## C[C@]12CCC(=O)C=C1CC[C@@H]1[C@@H]2C(=O)C[C@@]2(C)[C@H]1CC[C@]2(O)C(=O)CO [CORTISONE]
[2]; [M+H]+
  collision cross section (N2): 188.3 Å²
[2]; [M+Na]+
  collision cross section (N2): 213.2 Å²
[2]; [M-H]-
  collision cross section (N2): 191.4 Å²
[3]; [M+H]+
  collision cross section (N2): 184.4 Å²

## Nc1ncnc2nc[nH]c12 [ADENINE]
[2]; [M+H]+
  collision cross section (N2): 124.9 Å²
[2]; [M+Na]+
  collision cross section (N2): 137 Å² and 137.4 Å²
[2]; [M-H]-
  collision cross section (N2): 119.6 Å² and 119.8 Å²
[3]; [M+H]+
  collision cross section (N2): 122.4 Å²

## Nc1ncnc2c1ncn2[C@H]1C[C@H](O)[C@@H](CO)O1 [DEOXYADENOSINE]
[2]; [M+H]+
  collision cross section (N2): 152.3 Å² and 158.1 Å²
[2]; [M+Na]+
  collision cross section (N2): 161.6 Å²
[2]; [M-H]-
  collision cross section (N2): 155.3 Å²
[3]; [M+H]+
  collision cross section (N2): 154.6 Å²

## OC[C@H]1O[C@H](OC[C@H]2OC(O)[C@H](O)[C@@H](O)[C@@H]2O)[C@H](O)[C@@H](O)[C@H]1O (some centres undefined) [MELIBIOSE]
[2]; [M+H]+
  collision cross section (N2): 180.4 Å²
[2]; [M+K]+
  collision cross section (N2): 180 Å²
[2]; [M+Na]+
  collision cross section (N2): 177.3 Å²
[2]; [M-H]-
  collision cross section (N2): 178.1 Å²
[3]; [M+Na]+
  collision cross section (N2): 174.8 Å²

## CC(=O)OCC[N+](C)(C)C [ACETYLCHOLINE]
[2]; [M+]+
  collision cross section (N2): 129.5 Å²
[3]; [M]+
  collision cross section (N2): 130.1 Å²

## O=c1[nH]c(=O)c2[nH]cnc2[nH]1 [XANTHINE]
[2]; [M+H]+
  collision cross section (N2): 129.9 Å²
[2]; [M-H]-
  collision cross section (N2): 120.6 Å²

## O=C(O)c1c[nH]c(=O)[nH]c1=O [URACIL 5-CARBOXYLATE]
[2]; [M+Na]+
  collision cross section (N2): 139.8 Å²
[2]; [M-H]-
  collision cross section (N2): 118.9 Å²

## Nc1ccn([C@@H]2O[C@H](COP(=O)(O)O)[C@@H](O)[C@H]2O)c(=O)n1 [CYTIDINE MONOPHOSPHATE]
[2]; [M+H]+
  collision cross section (N2): 166.8 Å² and 167 Å²
[2]; [M+Na-2H]-
  collision cross section (N2): 163.2 Å² and 163.4 Å²
[2]; [M+Na]+
  collision cross section (N2): 167.9 Å² and 168 Å²
[2]; [M-H]-
  collision cross section (N2): 164.4 Å² and 164.5 Å²

## OC1C(O)C(O)C(O)C(O)C1O (centres undefined) [MYOINOSITOL]
[2]; [M+Na]+
  collision cross section (N2): 148.6 Å²
[2]; [M-H]-
  collision cross section (N2): 131.3 Å²
